row,SMILES,melting point [°C]
1,CC(=O)OC1CSC(Oc2ccc(-c3ccccn3)cc2)C(OC(C)=O)C1OC(C)=O (centres undefined),125 to 130
2,CSc1c(Cl)nc(Cl)nc1SC#N,143 to 144
3,CCCCCCCCc1ccc(NC(=O)Nc2ccc(S(N)(=O)=O)cc2)cc1,282 to 283
4,COC(=O)CCC(C)C1CCC2C3CCC4CCCCC4(C)C3CCC12C (centres undefined),87
5,COc1cc(CCI)cc(OC)c1,30 to 33
6,Nc1cccc(C#Cc2c(F)c(F)nc(F)c2F)c1,172 to 173
7,CC(C)NC1=NS(=O)(=O)c2cc(Br)cc(Br)c2N1,306 to 311
8,Oc1ccc2ccc(Oc3c(Cl)cc(C(F)(F)F)cc3Cl)cc2c1,98
9,O=C(NCc1ccncc1)c1cccc2c1OCCO2,120 to 121
10,Cc1nc(-c2ccc(C(F)(F)F)cc2)sc1COc1ccc(CC(=O)O)cc1,149 to 150
11,CCOC(=O)c1nc(-c2ccncc2)[nH]c1-c1ccc(C)cc1,182 to 185
12,OC1OC2CC3CC(C2)OC1O3 (centres undefined),185 to 194
13,O=C(C=Cc1cccc(-c2ccccc2)c1)Nc1ccc(CP2(=O)OCCCO2)cc1,204 to 205
14,CS(=O)(=O)NC1CCN(c2nc(N)nc(-c3cc(Cl)ccc3Cl)n2)C1 (centres undefined),102 to 107
15,Cc1cc(Cl)nc2nc(N3C(=O)c4ccccc4C3CC(=O)N3CCC4(CC3)OCCO4)ccc12 (centres undefined),259 to 262
16,NC(=O)c1cnc2c(N)cccc2c1,164 to 165
17,Cc1cc(C(O)(C(F)(F)F)C(F)(F)F)cc(C)c1S,62 to 64
18,CC(C)(C)OC(=O)N1CCn2c(Cl)c(Br)c(C(N)=O)c2C1,214 to 216
19,O=C(CC(F)=C(F)F)Nc1cccc(C(=O)O)c1,252 to 255
20,CS(=O)(=O)c1ccc(C(CC2CCCCC2)C(=O)O)cc1 (centres undefined),139 to 143
21,O=C(O)CCCCN(C(=O)c1ccc(Cl)cc1)c1ccc2c(c1)CCC2,132 to 134
22,CC1CCC2(C)C(=CCC3C2CCC2(C)C3CCC23OCCO3)C1 (centres undefined),121 to 122
23,CCCCc1ncc(/C=C(\Cc2cccs2)c2nnn[nH]2)n1Cc1cccc(Cl)c1Cl,204 to 205
24,CCc1cc(CC)nc(Sc2ccnc3cc(Cl)ccc23)n1,64.8 to 66
25,CCC1(CC)Cc2cc(O)c(Cl)c(Cl)c2C1=O,184

row,SMILES,melting point [°C]
1,COc1ccc(-c2cc(C(F)F)nn2-c2ccc(S(N)(=O)=O)cc2)cc1F,159 to 161
2,C=C(C)C(=O)OCCNC(=O)Oc1cccc(OC(=O)c2ccccc2)c1,57.5 to 61.5
3,O=S(=O)(Nc1cccc(I)c1)C(F)(F)F,75 to 77
4,COC(=O)Cc1cc(Br)c(S)c(Br)c1,63.5 to 65
5,COCOc1cc(Cl)ccc1-c1cc(-c2cccc(NC(=O)Cn3ccnc3)c2)c(C#N)c(NC(=O)c2ccco2)n1,157 to 160
6,COc1ccc(CC(=O)Nc2c(C)c(C)c3c(c2C)C(c2ccc(C(C)C)cc2)CO3)cc1 (centres undefined),166 to 167
7,CCCc1nc2c(nc1O)CCCC2,131 to 133
8,Cc1cc2[nH]c(=O)c(=O)[nH]c2cc1Cl,> 330
9,COC(=O)C(O)NC(=O)OC(C)(C)C (centres undefined),96 to 97
10,C=Cc1c(C)c2c(c(O)c1C/C=C1\CCCC1CC(=O)O)C(=O)OC2 (centres undefined),141 to 142
11,O=[N+]([O-])C[C@@H](O)[C@H](O)[C@@H](O)[C@@H](O)CO,89 to 91
12,N#Cc1nn(-c2c(Cl)cc(C(F)(F)F)cc2Cl)c(N)c1-c1ccsc1C(F)(F)F,162
13,OCc1nc2n(n1)-c1cccnc1N(c1ccc(Cl)cc1)C2,240 to 245
14,O=C1NCC(c2ccco2)SCC1N1C(=O)c2ccccc2C1=O (centres undefined),235
15,CCCCc1nc2c(N)nc3cccnc3c2n1CCNC(=O)C1CCCCC1,188 to 190
16,COc1ccc(C=Cc2cccc(C(=O)O)c2)cc1OC1CCCC1,93 to 94
17,COc1ccc(C(=O)c2noc(CC(=O)O)n2)cc1,126 to 127
18,CS(=O)(=O)c1ccc(C2=C(c3ccccc3)C(=O)C3(CCCC3)O2)cc1,184 to 185
19,COc1ccc(C2C3=C(COC3=O)Nc3onc(-c4ccc(Cl)cc4)c32)cc1O (centres undefined),245 to 246
20,Cc1cccc(C(=O)OC2CCCCC2=O)c1 (centres undefined),73 to 74
21,O=C(Nc1ccc(N2CCOCC2)c(C(F)(F)F)c1)c1ccc(F)c(OCc2cnc3ccccc3c2)c1,81 to 84
22,CC(C)C(=O)NC(=O)N1C(=O)Cc2cc(Cl)ccc21,139 to 141
23,O=C(Nc1ccc(C(=O)N2Cc3ccccc3Cc3ccccc32)cc1)c1ccccc1-c1ccccc1,224 to 225
24,CCCCC(Cc1ccc(OCCNC(=O)c2ccc(Oc3ccccc3)nc2)cc1)C(=O)O (centres undefined),124 to 125

# Second part, the molecule after the results:
row,melting point [°C],SMILES
1,148 to 149,CC(C)(C)OC(=O)N1CC(CCl)c2c1cc(O)c1ncccc21 (centres undefined)
2,154,CC(C)CCC(=O)OC1c2ccccc2C(=O)N1c1ccc2ccc(F)nc2n1 (centres undefined)
3,90,CCN(CC)CCCN1C(=O)NC(Cc2c[nH]c3ccccc23)C1=O (centres undefined)
4,181 to 182,Cn1cc(C=O)c(-c2ccc([N+](=O)[O-])o2)n1
5,154 to 157,NC(=O)CC[C@@H](CF)NC(=O)OCc1ccccc1
6,269 to 271,CS(=O)(=O)c1ccc(-c2cc(=O)cc(C(=O)O)o2)cc1
7,169 to 170,COC(=O)c1sc2cc([N+](=O)[O-])ccc2c1N
8,149 to 150,COc1ccc(Nc2cnc3c(NCc4ccccc4)nc(NCCO)nc3c2)cc1OC
9,106 to 108,CCNC(=O)c1cc(N=C=S)ccc1[Si](C)(C)C
10,63 to 66,COC(=O)c1sccc1-c1ccccc1
11,140 to 141,O=C(NCCc1cccc2ccc(O)cc12)C1CC1
12,102 to 104,CCOc1ccc(S(=O)(=O)N(Cc2ccc(C(=O)OC)cc2)[C@@H](CC)c2ccccc2)cc1
13,265 to 268,CCc1cc2oc3cc(-c4ccccc4Cl)c4c(c3c2cc1O)C(=O)NC4=O
14,122 to 124,C1=C(c2ccccc2)CSS1
15,152,C[C@H]1C[C@@H](Oc2cccc(NC(=O)c3ccc(F)cc3Cl)c2)CCN1C (relative stereo)
16,190,Cc1cc(Cl)ccc1NC(=O)NCCCl
17,89.5 to 90.5,O=C(OCc1ccccc1)N1CCN(CCN2C(=O)c3ccccc3C2=O)CC1
18,216 to 217,CCc1ccc(N2CCN(Cc3c[nH]c4ncccc34)CC2)cc1
19,237 to 253,Cn1c(=O)ccc2cnc(N)nc21
20,95 to 98,O=C(O)C(O)Cc1ccccc1[N+](=O)[O-] (centres undefined)
21,135 to 136,CCCCCCCCCCc1ccc(CNc2ccc(C(=O)O)cc2)cc1
22,198,CN(O)C(=O)Nc1ccc(S(C)=O)cc1 (centres undefined)
23,> 250,Nc1cc(=O)[nH]c2ccccc12
24,166 to 168,CC(C)C[C@H](NC(=O)[C@H](Cc1c[nH]cn1)NC(=O)[C@H](Cc1cccc2ccccc12)NC(=O)OCc1ccccc1)[C@@H](O)CC=O
25,151 to 153,O=[N+]([O-])c1ccc(Cl)cc1Sc1cccc2cnccc12
26,120 to 123,Cn1c(C(=O)NCCCNC2CCCCC2)ccc1-c1nc(-c2cccc(C(F)(F)F)c2)cs1
27,91 to 91.5,COc1ccccc1SCCC(=O)O
28,48 to 54,COC(=O)C(CNC(=O)c1ccccc1)NC(=O)C(C)(C)NC(=O)C(SC(C)=O)C(C)C (centres undefined)

row,melting point [°C],SMILES
1,115 to 116,CN(C)c1ccc(C=O)c([N+](=O)[O-])c1
2,302 to 305,NNC(=O)c1cnn(-c2ccc(NN)nn2)c1N
3,148 to 151,CN1C(=S)NN2CCCC21c1ccccc1 (centres undefined)
4,144 to 146,COCCN1CCN(c2ccc(N3C[C@H](CNC(C)=O)OC3=O)cc2F)CC1
5,209 to 213,Cc1ccccc1Oc1nnc(Cl)c(C)c1O
6,88.2 to 89.2,O=Cc1cc(Br)ccc1N1CC=CC1
7,114 to 115,COC(=O)C1CC(=O)Nc2ccccc2C1 (centres undefined)
8,178,CC(C)(C)c1ccc(/C=C/C(=O)Nc2ccc3ccn(CCO)c3c2)cc1
9,137 to 142,CN(C)C(=O)N1C[C@@H](O)[C@H](Oc2ccc(Cl)cc2)C1 (relative stereo)
10,232 to 235,CC(=O)NNc1ccnc2c(NC(=O)c3ccccc3[N+](=O)[O-])cccc12
11,159 to 160,Cc1oc(-c2ccccc2)nc1COc1ccc2cc(CCCC3OC(=O)NC3=O)oc2c1 (centres undefined)
12,139 to 140,CC(C)(C)NC(=O)N(CCc1ccccc1)CC(O)C(Cc1ccccc1)NC(=O)C(CC(N)=O)NC(=O)c1ccc2ccccc2n1 (centres undefined)
13,218 to 220,O=C1CC2(C(=O)N1)C(=O)N(Cc1ccc(Br)cc1F)c1ccccc12 (centres undefined)
14,117 to 119,COc1cc(C)c2c(Oc3cccc(C(F)(F)F)c3)c(OC)cc(NC(C)CCCN3C(=O)c4ccccc4C3=O)c2n1 (centres undefined)
15,> 300,NCc1cccc(OCCSc2nc[nH]n2)c1
16,151 to 156,O=C1c2ccccc2C(=O)c2cc(S(=O)(=O)NCCCN3CCOCC3)ccc21
17,95 to 96,CCOP(=O)(/C=C/c1cn(CCO)nc1OCc1ccc(OCc2nc(-c3ccco3)oc2C)c(OC)c1)OCC
18,91 to 92,Cc1c(C)c2c(c(C)c1N)[C@H](c1ccc(C(C)C)cc1)[C@H](C)O2 (relative stereo)
19,87 to 90,CN(C)CCc1c(CC(C)(C)[N+](=O)[O-])c2ccccc2n1C
20,118 to 120,Cc1cc(=O)c(OCc2ccccc2)c(C(=O)NC2CCCCC2)o1
21,131,C#CCNC(=O)C(c1ccccc1)c1ccccc1
22,95.2 to 95.6,COc1ccc2ccccc2c1CC#N
23,243 to 245,O=C1Cc2cccc(S(=O)c3ccccc3Cl)c2N1 (centres undefined)
24,53 to 55,FC1(F)c2ccccc2C(F)(F)C(F)(F)c2ccccc21
25,192 to 193,CN(C)C(=O)N1CCc2ccc(S(N)(=O)=O)cc2CC1
26,54 to 56,CCCCOc1ccc(/C=C/c2cc(OC)cc(OC)c2)cc1
27,174 to 176,CC(C)(C)c1cc(CCc2ccccc2NC(=O)NC2CCCCCCC2)cc(C(C)(C)C)c1O
